# Measurements from patent publication US12209102B2, “Heterocyclic compounds and uses thereof” (Kumquat Biosciences Inc., priority 2022, dated 2025).
# How the values were obtained:
# [1] = tested on: GP2D cells; assay: Ras cellular assay, growth of cells with K-Ras G12D mutation (CellTiter-Glo); type: cell-based; details: cell growth, Example 9, G12D mutation, read-out: IC50 against GP2D cells
# [2] = target: T1, K-Ras G12S (Homo sapiens, UniProt P01116, G12S); assay: HTRF resonance energy transfer assay, K-Ras G12S / SOS1 interaction; type: biochemical; details: HTRF assay of Example 5; read-out: IC50 against K-Ras G12S
# T1 construct: made in house; host or cells: E. coli BL21 (DE3)
# Outline: (§1)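 Compounds, tested in duplicate at 10 μM down to 0.01 μM, were read after about 10 min or more by HTRF as the 665/620 nm emission ratio (337 nm excitation) to derive IC50. This ratio reports FRET between an anti-GST-Eu donor on GST-K-Ras (wild-type or mutant) and an anti-6His-XL665 acceptor on His-hSOS1. Buffer: ~5 mM HEPES pH 7.4, 150 mM NaCl, 1 mM DTT, 0.05% BSA, 0.0025% Igepal.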
# [3] = target: T2, K-Ras G12V (Homo sapiens, UniProt P01116, G12V); assay: HTRF resonance energy transfer assay, K-Ras G12V / SOS1 interaction; type: biochemical; details: HTRF assay of Example 5; read-out: IC50 against K-Ras G12V
# T2 construct: made in house; host or cells: E. coli BL21 (DE3)
# Outline: as §1
# [4] = target: T3, K-Ras WT (Homo sapiens, UniProt P01116); assay: HTRF resonance energy transfer assay, K-Ras WT / SOS1 interaction; type: biochemical; details: HTRF assay of Example 5; read-out: IC50 against K-Ras WT
# T3 construct: made in house; host or cells: E. coli BL21 (DE3)
# Outline: as §1
# [5] = target: T4, K-Ras G12D (Homo sapiens, UniProt P01116, G12D); assay: HTRF resonance energy transfer assay, K-Ras G12D / SOS1 interaction; type: biochemical; details: HTRF assay of Example 5; read-out: IC50 against K-Ras G12D
# T4 construct: made in house; host or cells: E. coli BL21 (DE3)
# Outline: as §1
# [6] = tested on: A549 cells; assay: Ras cellular assay, growth of cells with K-Ras G12S mutation (CellTiter-Glo); type: cell-based; details: Homo sapiens, cell growth, Example 9, G12S mutation, read-out: IC50 against A549 cells
# Outline: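 Growth inhibition IC50 values come from four-parameter fits of CellTiter-Glo luminescence, read about 6 days after compound addition. G12S-mutant A549 cells (e.g. 800/well, RPMI-1640 + 10% heat-inactivated FBS) were plated in tissue-culture-treated or ultra-low-attachment 384-well format. Dosing began the following day with serial dilutions, e.g. 10 points, 3-fold.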
# [7] = tested on: SW620 cells; assay: Ras cellular assay, growth of cells with K-Ras G12V mutation (CellTiter-Glo); type: cell-based; details: Homo sapiens, SW-620; cell growth, Example 9, G12V mutation; read-out: IC50 against SW620 cells
# Outline: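 IC50 values came from a four-parameter fit of CellTiter-Glo viability, read roughly 6 days after dosing with e.g. a 10-point threefold dilution series. G12V-mutant SW620 cells (e.g. 800 per well) had been plated the previous day in RPMI-1640/10% heat-inactivated FBS, on tissue culture-treated or ultra-low attachment plates.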
# T3 sequence (P01116 1-188 isoform P01116-2): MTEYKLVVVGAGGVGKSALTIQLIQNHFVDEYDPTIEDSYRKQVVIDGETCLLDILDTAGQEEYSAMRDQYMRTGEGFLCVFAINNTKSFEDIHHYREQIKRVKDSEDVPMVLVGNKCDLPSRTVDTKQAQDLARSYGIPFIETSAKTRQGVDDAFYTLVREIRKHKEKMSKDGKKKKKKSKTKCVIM
# T1 sequence (P01116 1-188 isoform P01116-2 G12S): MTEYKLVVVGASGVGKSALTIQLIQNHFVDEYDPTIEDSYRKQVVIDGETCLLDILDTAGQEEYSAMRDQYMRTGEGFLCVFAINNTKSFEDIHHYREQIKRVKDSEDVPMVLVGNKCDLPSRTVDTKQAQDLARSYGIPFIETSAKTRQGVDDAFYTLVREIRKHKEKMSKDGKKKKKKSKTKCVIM
# T2 sequence (P01116 1-188 isoform P01116-2 G12V): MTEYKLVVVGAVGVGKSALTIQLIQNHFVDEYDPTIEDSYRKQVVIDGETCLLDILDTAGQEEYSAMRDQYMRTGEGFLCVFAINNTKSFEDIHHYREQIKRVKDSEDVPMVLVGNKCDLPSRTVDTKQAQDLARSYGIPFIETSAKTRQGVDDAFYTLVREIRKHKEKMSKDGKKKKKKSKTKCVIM
# T4 sequence (P01116 1-188 isoform P01116-2 G12D): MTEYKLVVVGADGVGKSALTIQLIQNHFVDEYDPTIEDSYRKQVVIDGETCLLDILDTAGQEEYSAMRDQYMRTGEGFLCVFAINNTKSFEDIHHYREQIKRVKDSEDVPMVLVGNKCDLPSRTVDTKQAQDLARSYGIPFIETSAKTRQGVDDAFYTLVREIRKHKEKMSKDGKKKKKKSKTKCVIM
Compound,IC50 [1] [nM],IC50 [2] [nM],IC50 [3] [nM],IC50 [4] [nM],IC50 [5] [nM],IC50 [6] [nM],IC50 [7] [nM]
"N#Cc1c(N)sc2c(F)ccc(-c3c(Cl)c4c5c(nc(OC[C@@]67CCCN6C[C@H](F)C7)nc5c3F)N(CC3CC3C#N)[C@@H](C3(O)CC3)CO4)c12 (single isomer, unassigned) [Compound 942]",< 500,,,,,,
"N#Cc1c(N)sc2c(F)ccc(-c3c(Cl)c4c5c(nc(OC[C@@]67CCCN6C[C@H](F)C7)nc5c3F)N(C3CCCCC3O)CCO4)c12 (stereo partly drawn) [Compound 602, 2-amino-4-(8-chloro-10-fluoro-2-(((2R,7aS)-2-fluorotetrahydro-1H-pyrrolizin-7a(5H)-yl)methoxy)-4-(2-hydroxycyclohexyl)-5,6-dihydro-4H-[1,4]oxazepino[5,6,7-de]quinazolin-9-yl)-7-fluorobenzo[b]thiophene-3-carbonitrile]",< 500,,,,,,
"C[C@H]1COc2c(Cl)c(-c3ccc(F)c4sc(N)c(C#N)c34)c(F)c3nc(OC[C@@]45CCCN4C[C@H](F)C5)nc(c23)N1C1CCOC1 (stereo partly drawn) [Compound 647, 2-amino-4-((5S)-8-chloro-10-fluoro-2-(((2R,7aS)-2-fluorotetrahydro-1H-pyrrolizin-7a(5H)-yl)methoxy)-5-methyl-4-(tetrahydrofuran-3-yl)-5,6-dihydro-4H-[1,4]oxazepino[5,6,7-de]quinazolin-9-yl)-7-fluorobenzo[b]thiophene-3-carbonitrile]",< 500,,,,,,
"N#Cc1c(N)sc2c(F)ccc(-c3c(Cl)c4c5c(nc(OC[C@@]67CCCN6C[C@H](F)C7)nc5c3F)N(C3CCC5(C3)CN(C(=O)C3CC3)C5)CCO4)c12 (stereo partly drawn) [Compound 650, 2-amino-4-(8-chloro-4-(2-(cyclopropanecarbonyl)-2-azaspiro[3.4]octan-6-yl)-10-fluoro-2-(((2R,7aS)-2-fluorotetrahydro-1H-pyrrolizin-7a(5H)-yl)methoxy)-5,6-dihydro-4H-[1,4]oxazepino[5,6,7-de]quinazolin-9-yl)-7-fluorobenzo[b]thiophene-3-carbonitrile]",< 500,,,,,,
"N#Cc1c(N)sc2c(F)ccc(-c3c(Cl)c4c5c(nc(OC[C@@]67CCCN6C[C@H](F)C7)nc5c3F)N(CC(F)F)[C@@H](C3(O)CC3)CO4)c12 [Compound 707, 2-amino-4-((R)-8-chloro-4-(2,2-difluoroethyl)-10-fluoro-2-(((2R,7aS)-2-fluorotetrahydro-1H-pyrrolizin-7a(5H)-yl)methoxy)-5-(1-hydroxycyclopropyl)-5,6-dihydro-4H-[1,4]oxazepino[5,6,7-de]quinazolin-9-yl)-7-fluorobenzo[b]thiophene-3-carbonitrile]",< 500,< 100,< 100,< 100,< 100,,
"C[C@H]1COc2c(Cl)c(-c3ccc(F)c4sc(N)c(C#N)c34)c(F)c3nc(OC[C@@]45CCCN4C[C@H](F)C5)nc(c23)N1CC1CC1C#N (stereo partly drawn) [Compound 731, 2-amino-4-((5S)-8-chloro-4-((2-cyanocyclopropyl)methyl)-10-fluoro-2-(((2R,7aS)-2-fluorotetrahydro-1H-pyrrolizin-7a(5H)-yl)methoxy)-5-methyl-5,6-dihydro-4H-[1,4]oxazepino[5,6,7-de]quinazolin-9-yl)-7-fluorobenzo[b]thiophene-3-carbonitrile]",< 500,,,,,,
"N#Cc1c(N)sc2c(F)ccc(-c3c(Cl)c4c5c(nc(OC[C@@]67CCCN6C[C@H](F)C7)nc5c3F)N(C3CCOC3)[C@@H](C(F)F)CO4)c12 (stereo partly drawn) [Compound 871, 2-amino-4-((5R)-8-chloro-5-(difluoromethyl)-10-fluoro-2-(((2R,7aS)-2-fluorotetrahydro-1H-pyrrolizin-7a(5H)-yl)methoxy)-4-(tetrahydrofuran-3-yl)-5,6-dihydro-4H-[1,4]oxazepino[5,6,7-de]quinazolin-9-yl)-7-fluorobenzo[b]thiophene-3-carbonitrile]",< 500,,,,,,
"N#Cc1c(N)sc2c(F)ccc(-c3c(Cl)c4c5c(nc(OC[C@@]67CCCN6C[C@H](F)C7)nc5c3F)N(CC3CC3C#N)[C@@H](C(F)F)CO4)c12 (stereo partly drawn) [Compound 938, 2-amino-4-((5R)-8-chloro-4-((2-cyanocyclopropyl)methyl)-5-(difluoromethyl)-10-fluoro-2-(((2R,7aS)-2-fluorotetrahydro-1H-pyrrolizin-7a(5H)-yl)methoxy)-5,6-dihydro-4H-[1,4]oxazepino[5,6,7-de]quinazolin-9-yl)-7-fluorobenzo[b]thiophene-3-carbonitrile]",< 500,,,,,,
"N#Cc1c(N)sc2c(F)ccc(-c3c(Cl)c4c5c(nc(OC[C@@]67CCCN6C[C@H](F)C7)nc5c3F)N(C3CC(NC=O)C3)CCO4)c12 (stereo partly drawn) [Compound 988, N-(3-(9-(2-amino-3-cyano-7-fluorobenzo[b]thiophen-4-yl)-8-chloro-10-fluoro-2-(((2R,7aS)-2-fluorotetrahydro-1H-pyrrolizin-7a(5H)-yl)methoxy)-5,6-dihydro-4H-[1,4]oxazepino[5,6,7-de]quinazolin-4-yl)cyclobutyl)formamide]",< 500,,,,,,
"N#Cc1c(N)sc2c(F)ccc(-c3c(Cl)c4c5c(nc(OC[C@@]67CCCN6C[C@H](F)C7)nc5c3F)N(CC(F)F)CC(C3CC3)O4)c12 (stereo partly drawn) [Compound 1128, 2-amino-4-(8-chloro-6-cyclopropyl-4-(2,2-difluoroethyl)-10-fluoro-2-(((2R,7aS)-2-fluorotetrahydro-1H-pyrrolizin-7a(5H)-yl)methoxy)-5,6-dihydro-4H-[1,4]oxazepino[5,6,7-de]quinazolin-9-yl)-7-fluorobenzo[b]thiophene-3-carbonitrile]",,< 100,< 100,< 100,< 100,< 5000,< 5000
"COCCN1CCCOc2c(Cl)c(-c3ccc(F)c4sc(N)c(C#N)c34)c(F)c3nc(OC[C@@]45CCCN4C[C@H](F)C5)nc1c23 [Compound 1201, 2-amino-4-(9-chloro-11-fluoro-2-(((2R,7aS)-2-fluorotetrahydro-1H-pyrrolizin-7a(5H)-yl)methoxy)-4-(2-methoxyethyl)-4,5,6,7-tetrahydro-[1,5]oxazocino[4,3,2-de]quinazolin-10-yl)-7-fluorobenzo[b]thiophene-3-carbonitrile]",,< 100,< 100,< 100,< 100,< 5000,< 5000
"N#Cc1c(N)sc2c(F)ccc(-c3c(Cl)c4c5c(nc(OC[C@@]67CCCN6C[C@H](F)C7)nc5c3F)N(C3CCOC3)CCCO4)c12 (stereo partly drawn) [Compound 1205, 2-amino-4-(9-chloro-11-fluoro-2-(((2R,7aS)-2-fluorotetrahydro-1H-pyrrolizin-7a(5H)-yl)methoxy)-4-(tetrahydrofuran-3-yl)-4,5,6,7-tetrahydro-[1,5]oxazocino[4,3,2-de]quinazolin-10-yl)-7-fluorobenzo[b]thiophene-3-carbonitrile]",,< 100,< 100,< 100,< 100,< 5000,< 5000
"CC1COc2c(Cl)c(-c3ccc(F)c4sc(N)c(C#N)c34)c(F)c3nc(OC[C@@]45CCCN4C[C@H](F)C5)nc(c23)N(C)[C@@H]1C (stereo partly drawn) [Compound 1206, 2-amino-4-((5R)-9-chloro-11-fluoro-2-(((2R,7aS)-2-fluorotetrahydro-1H-pyrrolizin-7a(5H)-yl)methoxy)-4,5,6-trimethyl-4,5,6,7-tetrahydro-[1,5]oxazocino[4,3,2-de]quinazolin-10-yl)-7-fluorobenzo[b]thiophene-3-carbonitrile]",,< 100,< 100,< 100,< 100,< 5000,< 5000
"CC1CCOc2c(Cl)c(-c3ccc(F)c4sc(N)c(C#N)c34)c(F)c3nc(OC[C@@]45CCCN4C[C@H](F)C5)nc(c23)N1C1CC1 (stereo partly drawn) [Compound 1215, 2-amino-4-(9-chloro-4-cyclopropyl-11-fluoro-2-(((2R,7aS)-2-fluorotetrahydro-1H-pyrrolizin-7a(5H)-yl)methoxy)-5-methyl-4,5,6,7-tetrahydro-[1,5]oxazocino[4,3,2-de]quinazolin-10-yl)-7-fluorobenzo[b]thiophene-3-carbonitrile]",,< 100,< 100,< 100,< 100,< 5000,< 5000
